Paper PMC4456249 (Structure (London, England : 1993), 2015)

Experiments:
[1] = tested on: CCL5; conditions: ref Mizumoto et al., 2013; cited from earlier work
[2] = target: the molecule itself; assay: NMR

Molecule	Affinity for CCL5 [1]	ratio of dimer-to-monomer (30 uM, 40 °C, without CS444) [2]	stoichiometry N [2]
chondroitin sulfate [CS]	submicromolar affinities	–	–
dermatan sulfate [DS]	submicromolar affinities	–	–
E66S CCL5 (natural protein) MSPYSSDTTPCCFAYIARPLPRAHIKEYFYTSGKCSNPAVVFVTRKNRQVCANPEKKWVREYINSLSMS	–	~1	2
